Measured values published in patent US8377934B2, “Use of stilbene derivatives for treatment and prevention of aquatic mold infections” (State of Israel, Ministry of Agriculture & Rural …, priority 2006, dated 2013).
Converted amounts (≈) assume the structure as drawn.

Columns and labels:
S. parasitica = assay: In vitro susceptibility of S. parasitica in Table 4; assay type: cell-based, Saprolegnia parasitica
Protocol: The in vitro susceptibility of Saprolegnia parasitica T-1 and S. parasitica CBS 540.67 to various compounds was determined by the agar-dilution and broth macrodilution methods.
(§1) Two methods were used, each suitable for a different phase of the asexual life cycle of Saprolegnia spp.: i) the broth macrodilution method, for determination of susceptibility of zoospores and cysts; and ii) the agar-dilution method for determination of susceptibility of filamentous hyphae. Each compound was tested three times in each method. Malachite Green was used as positive control.
(§2) This method is a modification of the method used for molds according to EUCAST 7.1 (European Committee on Antibiotic Susceptibility Testing) and CLSI/NCCLS M27-A2 (Clinical Laboratory Standards Institute/National Committee for Clinical Laboratory Standards). For inoculum preparation, S. parasitica isolates were cultured on GP-PS for 7 days with sterile clover seeds at 18° C. Clover seeds (˜20) covered with mycelium were removed and added to 40 ml of RPMI-1640 broth medium (Sigma; prepared according to NCCLS instructions) and incubated at 18° C. for 4-7 days. Cysts and zoospores free from hyphae were collected, and an inoculum of ˜10^3 CFU/ml as measured by hemacytometer counting, was prepared in RPMI. Fluorescent Brightener 28 stock solution was prepared by adding 40% KOH gradually to a 10 mg/ml solution in water, until it was clear, then it was filtered twice through a 0.2 μm cellulose acetate nonpyrogenic sterile filter (Schleicher & Schuell, Dassel, Germany).
(§3) Twofold serial dilutions of the resulting stock solutions were set in RPMI-1640 medium in a volume of 0.1 ml. Final drug concentrations in the test tubes ranged from 1×10^4 to 0.01 mg/L. Inoculum of 0.9 ml was added to each of a sterile tube containing 0.1 ml of the serially diluted drug. Two tubes containing drug-free medium and two tubes containing drug-free inoculum were used as controls. The inoculated tubes were incubated at room temperature (15-20° C.) for 24 h. The growth in each tube was then evaluated visually.
This method is a modification of the method presented by Bailey (Bailey, T. A. (1983) Prog. Fish Cult. 45:24-27), and was used for the susceptibility testing of Saprolegnia hyphae. Twofold serial dilutions were prepared in double distillated sterile water with final drug concentrations ranging from 10,000 to 0.01 mg/L in a final volume of 1.0 ml. Melted (56° C.) RPMI-1640 agar medium (Sigma) was prepared according to NCCLS instructions, and then added to each tube containing drug or water control. The mixture was vortexed, and poured into small plates. After agar solidification a small measured piece, taken from a 7-10 day old culture of S. parasitica T-1 on GP-PS medium was placed upside down on each plate. The plates were incubated at room temperature (15-20° C.) for 24 h.

S. parasitica CBS 540.67 [1] = assay: Agar-dilution susceptibility testing (filamentous hyphae); assay type: cell-based, Saprolegnia parasitica
S. parasitica T-1 [2] = assay: as above; assay type: cell-based, Saprolegnia parasitica; details: 24 h
Protocol: as §1
Twofold serial dilutions were prepared in double distillated sterile water with final drug concentrations ranging from 10,000 to 0.01 mg/L in a final volume of 1.0 ml. […] The mixture was vortexed, and poured into small plates. After agar solidification a small measured piece, taken from a 7-10 day old culture of S. parasitica T-1 on GP-PS medium was placed upside down on each plate. The plates were incubated at room temperature (15-20° C.) for 24 h.

S. parasitica T-1 [3] = assay: Broth macrodilution susceptibility testing (zoospores and cysts); assay type: cell-based, Saprolegnia parasitica; details: 24 h
Protocol: as §1
as §2, with “Clover seeds (˜20) covered with mycelium were removed and added to 40 ml of RPMI-1640 broth medium (Sigma; prepared according to NCCLS instructions) and incubated at 18° C. for 4-7 days.” left out
as §3, with “Final” for “Twofold serial dilutions of the resulting stock solutions were set in RPMI-1640 medium in a volume of 0.1 ml. Final”

S. parasitica CBS 540.67 [4] = assay: as above; assay type: cell-based, Saprolegnia parasitica
Protocol: as §1
as §2, with “Clover seeds (˜20) covered with mycelium were removed and added to 40 ml of RPMI-1640 broth medium (Sigma; prepared according to NCCLS instructions) and incubated at 18° C. for 4-7 days.” left out
as §3, with “Final” for “Twofold serial dilutions of the resulting stock solutions were set in RPMI-1640 medium in a volume of 0.1 ml. Final”

tilapia = assay: in vivo; details: for LC50: tilapia, mortality up to 96 h
Protocol: LC50 values were determined by static short-term tests as a measure of the relative acute lethal toxicity for tilapia (Standard methods for the evaluation of water and wastewater (1985) 16th ed. American Public Health Association, Washington, D.C. p. 689-819).
Hybrid tilapia (Oreochromis niloticus X Oreochromis aureus) having an average weight of 20 g, were kept in 100 liter polyethylene tanks at a density of 1 fish per 10 liters, at a constant temperature of 21° C. for three weeks before the initiation of the experiment by addition of a test compound to each tank. […] For the latter experiments, fish were acclimated to the required temperature for three weeks prior to addition of the test compound to the tank. Fish were treated with 5 different concentrations of each test compound, determined according to the MIC values of each compound.
Mortality of fish was recorded up to 96 h. Water parameters (O2, NH4^+, NO2^−, pH and Cl^−) were monitored throughout the experiment and were maintained within acceptable limits. The presented results are the mean of two separate experiments.

[5] = S. parasitica CBS 540.67, 24 h, 15-20° C., geometric mean of three tests
[6] = S. parasitica T-1, 15-20° C., geometric mean of three tests

Row | Structure (SMILES) | MIC (S. parasitica; Saprolegnia parasitica, read-out: Activity in vitro (MIC), value) [µg/mL] | MIC (S. parasitica CBS 540.67 [1]; Saprolegnia parasitica, CBS540, 24 h, read-out: MIC, Agar-dilution) [µg/mL] | MIC (S. parasitica T-1 [2]; Saprolegnia parasitica, read-out: MIC, Agar-dilution) [µg/mL] | MIC (S. parasitica T-1 [3]; Saprolegnia parasitica, read-out: MIC, Macrodilution) [µg/mL] | MIC (S. parasitica CBS 540.67 [4]; Saprolegnia parasitica, CBS540, 24 h, read-out: MIC, Macrodilution) [µg/mL] | Toxicity (tilapia; in vivo) | Activity in vitro (MIC), grade (S. parasitica; Table 4 summary) | Activity in vitro (MIC), value (S. parasitica; Table 4 summary) | MIC, Agar-dilution (S. parasitica CBS 540.67 [1]; [5]) [µg/mL] | MIC, Agar-dilution (S. parasitica T-1 [2]; [6]) [µg/mL] | MIC, Macrodilution (S. parasitica T-1 [3]; [6]) [µg/mL] | MIC, Macrodilution (S. parasitica CBS 540.67 [4]; [5]) [µg/mL] | Toxicity (tilapia; Table 4 summary) | LC50 (tilapia; 15° C.) | LC50 (tilapia; 18° C.) | LC50 (tilapia; 25° C.)
1 | C=O [Formaldehyde] | 100 (≈ 3.33 mM) | 100 (≈ 3.33 mM) | 100 (≈ 3.33 mM) | 100 (≈ 3.33 mM) | 100 (≈ 3.33 mM) | Moderate (key: High: high = 50 ppm; Moderate: moderate = 50-200 ppm; Low: low = >1000 ppm) |  |  |  |  |  |  |  |  |  | 
2 | O=S(=O)([O-])c1cc(Nc2nc(Nc3ccccc3)nc(N(CCO)CCO)n2)ccc1C=Cc1ccc(Nc2nc(Nc3ccccc3)nc(N(CCO)CCO)n2)cc1S(=O)(=O)[O-].[K+].[Na+] [Blankophor® BA] |  |  |  |  |  |  | Moderate | (100 mg/L) | 200 | 200 | 100 | 200 | Low (low = >1000 ppm) | >2,000 mg/L | >2,000 mg/L | >2,000 mg/L
